According to the supplement of paper PMC7661543:
± gives the standard deviation of the averaged measurements.

Columns and labels:
Test in all cases: relative cell number vs DMSO control (72 h) (% of DMSO); higher = less growth inhibition (more cells)
Details in all cases: sgRNA knockout: sgNT
SKBR3 = test system: SKBR3
Protocol: (§1)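 QMAP-Seq: a pool of 5 breast cancer cell lines (ZR-75-1, SKBR3, HCC-38, MDA-MB-231, BT-20), each carrying 12 doxycycline-inducible Cas9 sgRNA perturbations (11 knockouts plus non-targeting sgNT), was treated with compounds for 72 h at four 10-fold doses (10 nM-10 uM or 1 nM-1 uM range). Barcodes were amplified and sequenced, and cell number was interpolated from 293T spike-in standard curves. The result is expressed as % of the median of DMSO wells. Two biological replicates.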

HCC-38 = test system: HCC-38
Protocol: as §1

BT-20 = test system: BT-20
Protocol: as §1

MDA-MB-231 = test system: MDA-MB-231
Protocol: as §1

ZR-75-1 = test system: ZR-75-1
Protocol: as §1

SMILES | relative cell number (SKBR3; 1 nM) | relative cell number (SKBR3; 10 nM) | relative cell number (SKBR3; 100 nM) | relative cell number (SKBR3; 1000 nM) | relative cell number (HCC-38; 1 nM) | relative cell number (HCC-38; 10 nM) | relative cell number (HCC-38; 100 nM) | relative cell number (HCC-38; 1000 nM) | relative cell number (BT-20; 1 nM) | relative cell number (BT-20; 10 nM) | relative cell number (BT-20; 100 nM) | relative cell number (BT-20; 1000 nM) | relative cell number (MDA-MB-231; 1 nM) | relative cell number (MDA-MB-231; 10 nM) | relative cell number (MDA-MB-231; 100 nM) | relative cell number (MDA-MB-231; 1000 nM) | relative cell number (ZR-75-1; 1 nM) | relative cell number (ZR-75-1; 10 nM) | relative cell number (ZR-75-1; 100 nM) | relative cell number (ZR-75-1; 1000 nM) | relative cell number (SKBR3; 10000 nM) | relative cell number (HCC-38; 10000 nM) | relative cell number (BT-20; 10000 nM) | relative cell number (MDA-MB-231; 10000 nM) | relative cell number (ZR-75-1; 10000 nM)
N#Cc1ccc(C(c2ccc(C#N)cc2)n2cncn2)cc1 [Letrozole] | 87.5 ± 18 | 97.5 ± 23 | 110 ± 22 | 121.06 ± 0.081 | 94.5 ± 6.1 | 107 ± 13 | 111 ± 12 | 95 ± 12 | 83 ± 35 | 89.6 ± 27 | 95.8 ± 6.8 | 104 ± 16 | 84.7 ± 9.7 | 109 ± 10 | 77.2 ± 7.3 | 106 ± 11 | 109 ± 14 | 93.6 ± 24 | 106 ± 30 | 60.6 ± 7.9 | – | – | – | – | –
Cc1ccc(F)c(NC(=O)Nc2ccc(-c3cccc4[nH]nc(N)c34)cc2)c1 [Linifanib] | – | 88.8 ± 1.8 | 107 ± 3.3 | 121 ± 7.9 | – | 94.4 ± 14 | 77.6 ± 10 | 118 ± 15 | – | 73.8 ± 4.6 | 105 ± 23 | 89.1 ± 1 | – | 70.5 ± 23 | 112 ± 30 | 100 ± 22 | – | 86.4 ± 18 | 97.6 ± 3.9 | 93.6 ± 40 | 40 ± 0.42 | 55.4 ± 4.2 | 60.5 ± 3.3 | 22.1 ± 0.58 | 33.4 ± 4.6
C[C@]1(O)C[C@@H](c2nc(-c3ccc4ccc(-c5ccccc5)nc4c3)c3c(N)nccn32)C1 [Linsitinib] | – | 94.7 ± 12 | 104 ± 18 | 78.71 ± 0.77 | – | 95.4 ± 8 | 99.1 ± 12 | 78 ± 3.6 | – | 111 ± 19 | 121 ± 28 | 79.2 ± 3.2 | – | 116 ± 10 | 104 ± 14 | 65.3 ± 20 | – | 90.6 ± 23 | 95.7 ± 6.6 | 70.9 ± 15 | 78.1 ± 11 | 70.1 ± 4.4 | 102 ± 11 | 64.9 ± 13 | 65.7 ± 3.7
Nc1nc(OCc2cc(Br)cs2)c2[nH]cnc2n1 [Lomeguatrib] | – | 111 ± 1.7 | 68.1 ± 13 | 104 ± 14 | – | 98.2 ± 6.3 | 88.5 ± 10 | 89.6 ± 22 | – | 101 ± 13 | 115 ± 3.5 | 89.5 ± 11 | – | 117 ± 22 | 125 ± 8.7 | 127.8 ± 0.46 | – | 103 ± 42 | 127 ± 3.4 | 78.2 ± 47 | 90.4 ± 27 | 81.9 ± 8.3 | 93.7 ± 13 | 86.4 ± 4.3 | 74.8 ± 5.2
CC[C@H](C)C(=O)O[C@H]1C[C@@H](C)C=C2C=C[C@H](C)[C@H](CC[C@@H]3C[C@@H](O)CC(=O)O3)[C@H]21 [Lovastatin] | – | 103 ± 22 | 81.1 ± 12 | 93.1 ± 11 | – | 96.5 ± 11 | 85.9 ± 6.2 | 102 ± 22 | – | 114 ± 20 | 78.7 ± 11 | 89.9 ± 35 | – | 112 ± 28 | 52.2 ± 31 | 83 ± 29 | – | 138 ± 33 | 67.2 ± 6.6 | 100.5 ± 0.94 | 78.4 ± 22 | 73.4 ± 13 | 78.8 ± 12 | 15.7 ± 6.2 | 88.2 ± 6.5
CC(C)C[C@@H](C=O)NC(=O)[C@H](CC(C)C)NC(=O)[C@H](CC(C)C)NC(=O)OCc1ccccc1 [MG132] | – | 111 ± 7.2 | 99.3 ± 22 | 14 ± 1.8 | – | 92.8 ± 13 | 95.7 ± 16 | 5.97 ± 0.84 | – | 102 ± 21 | 113 ± 32 | 35.4 ± 8.1 | – | 121 ± 1.8 | 77.3 ± 41 | 7.19 ± 1.8 | – | 80.8 ± 16 | 97.1 ± 11 | 24.7 ± 3.3 | 9.81 ± 0.2 | 8.104 ± 0.025 | 12 ± 0.91 | 7.81 ± 2.5 | 6.78 ± 1.8
O=C(O)CC[C@H]1CC[C@@](c2cc(F)ccc2F)(S(=O)(=O)c2ccc(Cl)cc2)CC1 [MK0752] | – | 172 ± 42 | 114 ± 19 | 107 ± 24 | – | 135 ± 24 | 107 ± 2.6 | 112 ± 14 | – | 137 ± 39 | 112 ± 41 | 145 ± 3.2 | – | 170 ± 61 | 93.4 ± 20 | 124 ± 7.5 | – | 120 ± 36 | 88.2 ± 30 | 107 ± 22 | 111 ± 27 | 115 ± 43 | 134 ± 1.4 | 94.4 ± 51 | 127 ± 28
C=CCn1c(=O)c2cnc(Nc3ccc(N4CCN(C)CC4)cc3)nc2n1-c1cccc(C(C)(C)O)n1 [MK1775] | – | 112 ± 1.2 | 108 ± 18 | 29.8 ± 14 | – | 97.2 ± 20 | 76.6 ± 6.7 | 35.3 ± 2.2 | – | 95.2 ± 12 | 84.17 ± 0.44 | 42.9 ± 2.7 | – | 81.5 ± 35 | 74 ± 8 | 20.3 ± 8 | – | 138 ± 30 | 77.7 ± 43 | 51.7 ± 24 | 14.7 ± 1.8 | 29.548 ± 0.018 | 31.7 ± 1.8 | 13.8 ± 6.6 | 15.6 ± 6
CC(C)C[C@H](NC(=O)CNC(=O)c1cc(Cl)ccc1Cl)B(O)O [MLN2238] | – | 87.5 ± 27 | 54.1 ± 9.5 | 9.25 ± 0.68 | – | 91.7 ± 16 | 50.2 ± 2.5 | 5.9 ± 0.86 | – | 85.1 ± 6.1 | 91 ± 27 | 40.2 ± 3.5 | – | 94.1 ± 17 | 65.3 ± 5 | 8.44 ± 0.14 | – | 93.7 ± 33 | 81.4 ± 28 | 17.8 ± 7.5 | 2.47 ± 0.24 | 4.82 ± 1.7 | 15 ± 6.4 | 4.72 ± 0.16 | 10.9 ± 8
Cc1ccc(NC(=O)c2ccc(CN3CCN(C)CC3)cc2)cc1Nc1nc(-c2cccnc2)cs1 [Masitinib] | – | 78.7 ± 58 | 99.4 ± 23 | 67.4 ± 6.4 | – | 106 ± 6.1 | 78.71 ± 0.36 | 76.6 ± 17 | – | 92.1 ± 2.6 | 80.9 ± 25 | 95.2 ± 38 | – | 91 ± 41 | 74.9 ± 12 | 64.2 ± 30 | – | 70.6 ± 28 | 76.2 ± 9.5 | 94.7 ± 34 | 66.6 ± 0.77 | 97.6 ± 2.4 | 70.8 ± 23 | 50.7 ± 4.3 | 34.2 ± 1.2
COc1cc(-n2c(=S)[nH]c3ccccc3c2=O)c(Cl)cc1Cl [Mdivi1] | – | 76 ± 18 | 104 ± 6.3 | 60 ± 1.5 | – | 95.3 ± 11 | 93.4 ± 13 | 100 ± 10 | – | 76.5 ± 8.6 | 98.8 ± 5.6 | 83.6 ± 2.9 | – | 93.3 ± 18 | 84.9 ± 27 | 94.7 ± 11 | – | 135 ± 44 | 77.9 ± 7.1 | 80.6 ± 2.8 | 44.2 ± 5.5 | 83.1 ± 20 | 84 ± 3.7 | 50.1 ± 5.6 | 41.5 ± 26
COC(=O)Nc1nc2cc(C(=O)c3ccccc3)ccc2[nH]1 [Mebendazole] | – | 96.3 ± 10 | 59.8 ± 7.3 | 10.6 ± 9.4 | – | 97.2 ± 18 | 83.2 ± 4.6 | 18.2 ± 7.5 | – | 87.1 ± 7.3 | 78.9 ± 21 | 25 ± 7.1 | – | 110 ± 10 | 79.4 ± 38 | 31.4 ± 12 | – | 71.7 ± 21 | 64.7 ± 17 | 36.8 ± 8.2 | 7.21 ± 5.9 | 19.9 ± 0.56 | 20.6 ± 6.8 | 26.5 ± 1.1 | 14 ± 8.6
